Measurements reported in US7052672B2, “Stabilized radiopharmaceutical compositions” (GE Healthcare Limited, priority 2000, dated 2006).

Experiments:
[1] = paraben with M=H; at 25° C.; cited from earlier work
[2] = 13C NMR investigation of the reaction between ascorbic acid and methylparaben; format: physicochemical
Method: Small portions of powdered sodium hydroxide were added with agitation to adjust the pH. At 3 defined pH's (pH 7.5, 8.8 and 9.6), a representative aliquot (0.5 cm^3) was transferred to an NMR tube. The 3 sampled reaction mixtures were monitored daily for one week by ^13C NMR When not being monitored, the mixtures were stored at room temperature protected from light. At the end of the monitoring period a small quantity of methanol was added to the solution to confirm that, if hydrolysis had occurred, the ^13C NMR signal for any methanol produced by transesterification would have been well separated from that for the initial methyl ester resonance.
The ^13C NMR spectra were obtained using a JEOL EX270 NMR spectrometer with a broad-band tuneable probe operating at a frequency of 67.94 MHz. The data for each spectrum was acquired over a period of about 30 min.
An aliquot (0.5 cm^3) of the colourless solution was removed and monitored by ^13C NMR spectroscopy. As part of the monitoring process the sample was placed in a Bruker AM250 NMR spectrometer after 29 hours and its ^13C NMR spectrum accumulated over a period of 16 hours. […] A small quantity of methanol was then added to the sample as a reference peak.

SMILES	solubility in water [1]	additional components from interaction of ascorbic acid and methylparaben (13C NMR) ([2]; Experiment B, pH 9.5, spectrum started after 29 hours, accumulated over 16 hours)	formation of methanol from hydrolysis of methylparaben (13C NMR) ([2]; Experiment B, pH 9.5, with ascorbic acid, after 29 hours, accumulated 16 hours)	reaction with ascorbic acid or hydrolysis (13C NMR) ([2]; even at pH approximately 9.6 after 7 days)
CCOC(=O)c1ccc(O)cc1 [ethylparaben, Ethylparaben]	0.070% w/w at 25° C.,			
COC(=O)c1ccc(O)cc1 [methylparaben, Methylparaben]		no significant quantities of any additional components had been produced	no evidence for the formation of any methanol	no evidence was found from ^13C NMR studies for any significant reaction between ascorbic acid and methylparaben, or any significant hydrolysis
